Experimental data from PMC10349806 (Nature Communications, 2023).
“And” between values parts separate entries of the source, which are not always exact repeats. Equal entries are not always repeated. Where two headings read alike, the source gives them in different places.

Experiments:
[1] = system: PfCRT variant E18A; experiment: CQ uptake assay, oocytes expressing E18A; type: cell-based, Plasmodium falciparum
Experimental: (§1) Site-directed mutagenesis of PfCRT^Dd2 was performed as described using the megaprimer method with overlap extension[21],[54]. The primer pairs used are listed in Supplementary Table 6. Please note that a codon-optimized and oocyte-adapted version of PfCRT^Dd2 was used[22] (Supplementary Fig. 16). The resulting DNA fragment was cloned into the SP64T expression vector and verified by sequencing.
(§2) Oocytes were obtained as described previously. Briefly, adult (>2 years old) female X. laevis frogs (NASCO) were anesthetized in a cooled solution of ethyl 3-amino benzoate methanesulfonate (0.1%, w/v), followed by a surgical removal of parts of the ovary. The ovary lobes were carefully dissected and small pieces of oocytes were incubated in Ca^2+-free ND96 buffer (96 mM NaCl, 2 mM KCl, 1 mM MgCl2 buffered with 5 mM HEPES/NaOH, pH 7.5) supplemented with collagenase D (0.1%, w/v; Roche), BSA (0.5%, w/v), and 9 mm Na2HPO4 at 18 °C for 14-16 h while gentle shaking. After incubation, the oocytes were carefully washed several times with ND96 buffer (96 mM NaCl, 2 mM KCl, 1.8 mM CaCl2, 1 mM MgCl2 buffered with 5 mM HEPES/NaOH, pH 7.5) supplemented with 100 mg l^−1 gentamycin). Defolliculated and healthy-looking stage V-VI oocytes were manually selected for RNA microinjection. The RNA was generated as following: The codon-optimized sequences of PfCRT variants were cloned into the pSP64T expression vector. After vector linearization using the restriction endonucleases BamHI or SalI (New England Biolabs), transcription was performed using the in vitro SP6 mMessage mMachine Kit (Ambion)[34]. The obtained RNA was kept at −80 °C and diluted with nuclease-free water to a concentration of 0.6 μg μl^−1. Precision-bore glass capillary tubes (3.5-inch glass capillaries; Drummond Scientific Co.) were pulled on a vertical puller (P-87 Flaming/Brown micropipette puller, Sutter Instrument Co.), graduated, and placed on a microinjector (Nanoject II Auto-Nanoliter Injector, Drummond Scientific Co.). 50 nl of nuclease-free water alone (control oocytes) or 50 nl of 0.6 μg μl^−1 RNA were injected under stereomicroscopic control. Injected oocytes were incubated for 46–72 h at 18 °C with twice-daily buffer changes before usage in experiments.
Drug uptake assays were performed as described previously[21],[22],[24],[34]. […] The direction of radio-labeled drug transport is here from the mostly acidic extracellular solution (pH 4.5 or 6.0, as indicated) into the oocyte cytosol (pH ∼ 7.2), which corresponds to the efflux of drug from the acidic digestive vacuole (pH 5.2) into the parasite cytoplasm (pH 7.2). The topology of PfCRT in the oolemma is such that both the N- and C-terminus face the extracellular milieu[3],[22]. In the parasite, the N- and C-terminus face the lumen of the digestive vacuole. CQ uptake kinetics were performed by incubating oocytes in ND96 buffer adjusted to a pH of 4.5, 5.0, 5.5, or 6.0 and supplemented with 50 nM [^3H]CQ and one of 7 different CQ concentrations (10 µM, 50 µM, 100 µM, 200 µM, 300 µM, 400 µM, 500 µM CQ). The reaction was stopped at the 60 min time point, which is in the linear uptake range[22],[34] (Supplementary Fig. 17). For determination of the amount of drug uptake for each oocyte, the reaction medium was removed and the oocytes were washed three times with 2 ml of ice-cold ND96 buffer. Each oocyte was individually transferred to a scintillation vial containing 5% sodium dodecyl sulfate (200 μl) for lysis. The radioactivity of each sample was measured using a liquid scintillation analyzer Tri-Carb 4910 TR (PerkinElmer). Oocytes that were injected with water instead of RNA were analyzed in parallel, representing the uptake of a drug by diffusion and/or endogenous permeation pathways. The resulting value represents the “background“ level of drug accumulation in oocytes (in-depth discussion in[22]). […]

[2] = system: PfCRT variant E207H; experiment: CQ uptake assay, oocytes expressing E207H; type: cell-based, Plasmodium falciparum; conditions: for Km: read-out: KM ± SEM
Experimental: as §1, §2
Drug uptake assays were performed as described previously[21],[22],[24],[34]. […] The direction of radio-labeled drug transport is here from the mostly acidic extracellular solution (pH 4.5 or 6.0, as indicated) into the oocyte cytosol (pH ∼ 7.2), which corresponds to the efflux of drug from the acidic digestive vacuole (pH 5.2) into the parasite cytoplasm (pH 7.2). The topology of PfCRT in the oolemma is such that both the N- and C-terminus face the extracellular milieu[3],[22]. In the parasite, the N- and C-terminus face the lumen of the digestive vacuole. […] For determination of the amount of drug uptake for each oocyte, the reaction medium was removed and the oocytes were washed three times with 2 ml of ice-cold ND96 buffer. Each oocyte was individually transferred to a scintillation vial containing 5% sodium dodecyl sulfate (200 μl) for lysis. […] Oocytes that were injected with water instead of RNA were analyzed in parallel, representing the uptake of a drug by diffusion and/or endogenous permeation pathways. The resulting value represents the “background“ level of drug accumulation in oocytes (in-depth discussion in[22]). The specific PfCRT-mediated uptake was determined by subtracting the corresponding background value measured in water-injected oocytes from that of PfCRT-expressing oocytes. In all cases, at least three separate experiments were performed on oocytes from different frogs (biological replicate), and for each condition in an experiment, measurements were made from 10 oocytes per treatment. For pH 5.5, 6.0, and 6.5, ND96 was buffered with 5 mM MES/Tris base.

[3] = E18A, 50 µM CQ, 1 h, mean ± SEM
[4] = E207H, 50 µM CQ, 1 h, mean ± SEM

CCN(CC)CCCC(C)Nc1ccnc2cc(Cl)ccc12 (stereo not drawn) [CQ, chloroquine]
Activity at pH 4.5 [1, 3]: 1.51 ± 0.34 pmol h-1 oocyte-1
Activity at pH 6.0 [1, 3]: 2.60 ± 0.53 pmol h-1 oocyte-1
R-value ([1]; E18A, CQ transport at pH 4.5 / pH 6.0): 0.57 ± 0.06
E18A transport activity pH 4.5 ([1]; pH 4.5, single replicates, Fig 1d left): 2.19 pmol oocyte-1 h-1 and 1.60 pmol oocyte-1 h-1 and 0.74 pmol oocyte-1 h-1
E18A R-value ([1]; pH 4.5 vs pH 6.0, Fig 1d left): 0.57 and 0.70 and 0.44
E18A transport activity pH 6.0 ([1]; pH 6.0, single replicates, Fig 1d left): 3.85 pmol oocyte-1 h-1 and 2.27 pmol oocyte-1 h-1 and 1.67 pmol oocyte-1 h-1
E207H transport activity ([2]; 10 μM CQ, pH 4.5): 0.41 pmol oocyte-1 h-1 and 0.39 pmol oocyte-1 h-1 and 0.48 pmol oocyte-1 h-1
E207H transport activity ([2]; 10 μM CQ, pH 6.0): 0.74 pmol oocyte-1 h-1 and 0.57 pmol oocyte-1 h-1 and 1.12 pmol oocyte-1 h-1 and 0.76 pmol oocyte-1 h-1
E207H transport activity ([2]; 50 μM CQ, pH 4.5): 2.07 pmol oocyte-1 h-1 and 1.95 pmol oocyte-1 h-1 and 1.52 pmol oocyte-1 h-1
E207H transport activity ([2]; 50 μM CQ, pH 6.0): 4.71 pmol oocyte-1 h-1 and 5.16 pmol oocyte-1 h-1 and 4.70 pmol oocyte-1 h-1 and 3.98 pmol oocyte-1 h-1
E207H transport activity ([2]; 100 μM CQ, pH 4.5): 4.26 pmol oocyte-1 h-1 and 4.32 pmol oocyte-1 h-1 and 4.33 pmol oocyte-1 h-1 and 5.17 pmol oocyte-1 h-1
E207H transport activity ([2]; 100 μM CQ, pH 6.0): 8.51 pmol oocyte-1 h-1 and 8.56 pmol oocyte-1 h-1 and 9.98 pmol oocyte-1 h-1 and 9.68 pmol oocyte-1 h-1
E207H transport activity ([2]; 200 μM CQ, pH 4.5): 6.09 pmol oocyte-1 h-1 and 7.31 pmol oocyte-1 h-1 and 7.21 pmol oocyte-1 h-1
E207H transport activity ([2]; 200 μM CQ, pH 6.0): 12.59 pmol oocyte-1 h-1 and 12.95 pmol oocyte-1 h-1 and 14.47 pmol oocyte-1 h-1 and 12.58 pmol oocyte-1 h-1
E207H transport activity ([2]; 300 μM CQ, pH 4.5): 7.95 pmol oocyte-1 h-1 and 7.89 pmol oocyte-1 h-1 and 7.92 pmol oocyte-1 h-1 and 8.79 pmol oocyte-1 h-1
E207H transport activity ([2]; 300 μM CQ, pH 6.0): 15.93 pmol oocyte-1 h-1 and 18.38 pmol oocyte-1 h-1 and 15.91 pmol oocyte-1 h-1 and 15.89 pmol oocyte-1 h-1
E207H transport activity ([2]; 400 μM CQ, pH 4.5): 8.22 pmol oocyte-1 h-1 and 9.32 pmol oocyte-1 h-1 and 10.99 pmol oocyte-1 h-1 and 9.19 pmol oocyte-1 h-1
E207H transport activity ([2]; 400 μM CQ, pH 6.0): 18.75 pmol oocyte-1 h-1 and 17.55 pmol oocyte-1 h-1 and 18.62 pmol oocyte-1 h-1
E207H transport activity ([2]; 500 μM CQ, pH 4.5): 8.40 pmol oocyte-1 h-1 and 9.28 pmol oocyte-1 h-1 and 9.33 pmol oocyte-1 h-1 and 9.38 pmol oocyte-1 h-1
E207H transport activity ([2]; 500 μM CQ, pH 6.0): 19.42 pmol oocyte-1 h-1 and 18.73 pmol oocyte-1 h-1 and 21.15 pmol oocyte-1 h-1 and 18.43 pmol oocyte-1 h-1
E207H transport activity pH 4.5 ([2]; CQ uptake, oocytes expressing E207H, pH 4.5, individual replicates (Fig 6c)): 2.07 pmol oocyte-1 h-1 and 1.95 pmol oocyte-1 h-1 and 1.52 pmol oocyte-1 h-1
E207H transport activity pH 5.0 ([2]; CQ uptake, oocytes expressing E207H, pH 5.0, individual replicates (Fig 6c)): 2.16 pmol oocyte-1 h-1 and 3.19 pmol oocyte-1 h-1 and 2.08 pmol oocyte-1 h-1 and 1.56 pmol oocyte-1 h-1
E207H transport activity pH 5.5 ([2]; CQ uptake, oocytes expressing E207H, pH 5.5, individual replicates (Fig 6c)): 2.52 pmol oocyte-1 h-1 and 2.31 pmol oocyte-1 h-1 and 4.16 pmol oocyte-1 h-1 and 3.55 pmol oocyte-1 h-1
E207H transport activity pH 6.0 ([2]; CQ uptake, oocytes expressing E207H, pH 6.0, individual replicates (Fig 6c)): 4.71 pmol oocyte-1 h-1 and 5.16 pmol oocyte-1 h-1 and 4.70 pmol oocyte-1 h-1 and 3.98 pmol oocyte-1 h-1
E207H transport activity pH 6.5 ([2]; CQ uptake, oocytes expressing E207H, pH 6.5, individual replicates (Fig 6c)): 3.76 pmol oocyte-1 h-1 and 4.49 pmol oocyte-1 h-1 and 4.51 pmol oocyte-1 h-1 and 2.60 pmol oocyte-1 h-1
E207H transport activity pH 7.0 ([2]; CQ uptake, oocytes expressing E207H, pH 7.0, individual replicates (Fig 6c)): 2.49 pmol oocyte-1 h-1 and 3.47 pmol oocyte-1 h-1 and 3.41 pmol oocyte-1 h-1 and 2.67 pmol oocyte-1 h-1
Vmax ± SEM ([2]; E207H, pH 4.5): 13 ± 1 pmol h^−1 oocyte ^−1
Km ([2]; E207H, pH 4.5): 230 ± 35 µM
Vmax ± SEM ([2]; E207H, pH 6.0): 29 ± 1 pmol h^−1 oocyte ^−1
Km ([2]; E207H, pH 6.0): 230 ± 20 µM
Activity at pH 4.5 [2, 4]: 1.99 ± 0.16 pmol h-1 oocyte-1
Activity at pH 6.0 [2, 4]: 4.64 ± 0.21 pmol h-1 oocyte-1
R-value ([2]; E207H, CQ transport at pH 4.5 / pH 6.0): 0.43 ± 0.03
E207H transport activity pH 4.5 ([2]; pH 4.5, individual replicates, Fig 6b): 2.07 pmol oocyte-1 h-1 and 1.95 pmol oocyte-1 h-1 and 1.52 pmol oocyte-1 h-1
E207H transport activity pH 6.0 ([2]; pH 6.0, individual replicates, Fig 6b): 4.71 pmol oocyte-1 h-1 and 5.16 pmol oocyte-1 h-1 and 4.70 pmol oocyte-1 h-1 and 3.98 pmol oocyte-1 h-1
E207H R-value ([2]; ratio of activity pH 4.5 / pH 6.0): 0.51 and 0.40 and 0.41 and 0.38
